“Also recorded” adds a separate entry of the source.

This is an account of results in patent US20050238628A1, “Methods for treating cancer” (priority 2004, published 2005).

In assay [1] the test system is Ba/F3 cells expressing the GyrB/Flt3 construct. Description: Growth of Ba/F3 cells expressing GyrB/Flt3 in the presence of the CID coumermycin. Format: cell-based. The settings on record: FIG. 1. The text has this:
(§1) An MSCV-based vector was constructed that encodes a fusion protein containing a myristylation domain linked to DNA gyrase B, which in turn is linked to the intracellular portion of murine flt-3, which in turn is linked to an HA epitope tag. […] Ba/F3 cells expressing the GyrB/Flt3 construct can be distinguished from Ba/F3 cells expressing EpoR/Abl using intracellular flow cytometry with an antibody directed against the HA tag.

Assay [2] has as its system Ba/F3 cells expressing EpoR/Abl mixed with Ba/F3 cells expressing GyrB/Flt3. Description: Mixed culture of EpoR/Abl and GyrB/Flt3 Ba/F3 cells, HA tag flow cytometry. Format: cell-based. The settings on record: coumermycin 1 nM, absence of IL-3, 4 days, flow cytometry for HA tag; FIG. 2. On the procedure:
A cDNA containing the EpoRIAbl construct was used to transduce Ba/F3 cells by retroviral gene transfer. After two days, IL-3 containing medium was washed away, and cells were cultured in the presence of erythropoietin (3 units/ml), without IL-3, to generate a polyclonal pool of erythropoietin dependent cells.
as §1
After 4 days, the frequency of cells expressing the HA tag was determined by flow cytometry.

In another assay the test system is Reh cells (EpoR). Description: STAT5 phosphorylation in Reh cells upon addition of erythropoietin. Format: cell-based. The settings on record: human TEL/AML1+ ALL line. The text has this:
A number of nonerythroid cell lines have been examined for EpoR expression.

For another assay, the system named is Ba/F3EpoRAbl cells. The settings on record: nude mice, tail vein injection of cells followed by injections of erythropoietin; cited from earlier work.

For the substance coumermycin, the “growth of Ba/F3 cells in the presence of the CID” value in assay [1] was “capable of growth; also recorded: capable of group”. Further, in assay [2], the “erythropoietin responsive (HA-negative) cells in mixed culture” value is “sharp reduction in erythropoietin responsive (HA-negative) cells”.
Turning to erythropoietin, the STAT5 phosphorylation entry in the assay on Reh cells (EpoR) is “exhibit STAT5 phosphorylation”. For the same substance, the “death of mice injected with Ba/F3EpoRAbl cells” value in the assay on Ba/F3EpoRAbl cells is reported as “induce death with a timecourse that is dependent on the concentration of exogenously administered Epo”.
